In patent US20040122209A1, “Products for regulating the degradation of collagen and methods for identifying same” (Shriners Hospital For Children, priority 2002, published 2004):

Tests used:
Type in all cases: cell-based
[1] = test system: MMP-13; assay: RT-PCR of MMP-13 mRNA in human chondrocyte culture; conditions: 24 hours incubation; data not shown
Source text: Isolated normal human chondrocytes were used for chondrocyte cultures, detection of integrin expression by FACScan, and cell attachment assays. The dissected normal human cartilage obtained at autopsy was cut into small cubes 2-4 mm in size. Chondrocytes were isolated as previously described (34), with some modifications. Briefly, the cubes were washed three times with medium (A). Thereafter, the diced cartilage was digested with 0.1% (wt/vol) trypsin (Sigma) and 0.02% (wt/vol) EDTA (Sigma) for 60 minutes (25 ml/10 g wet weight tissue) at 37° C. After washing the cartilage with Medium A containing 10% heat-inactivated fetal calf serum (FCS) to inhibit the trypsin, the digestion was continued in the same medium with serum (50 ml/10 g wet weight tissue) containing 0.2% (wt/vol) collagenase (type IA; Sigma) for 16 h at 37° C. with gentle agitation on a gyrotary shaker. Undigested cartilage was removed by filtration through a layer of nylon mesh (Cell Strainer; Becton Dickinson Labware, NJ). […]
Total RNA was isolated from chondrocytes or cartilage explants by the guanidine isothiocyanate procedure according to Chomczynski and Sacchi (Chomczynski, P. et al., Anal. Biochem. 162:156-9 (1987)) with some modifications. […] The total RNA pellet was resuspended in diethyl pyrocarbonate-treated (DEPC) water and the amount of total RNA was measured by reading optical density at 260 nm. […]

[2] = test system: adult bovine articular cartilage; assay: RT-PCR of hypertrophy and degradation genes in bovine articular cartilage explant culture
Description: (§1) Total RNA was isolated from chondrocytes or cartilage explants by the guanidine isothiocyanate procedure according to Chomczynski and Sacchi (Chomczynski, P. et al., Anal. Biochem. 162:156-9 (1987)) with some modifications. Briefly, chondrocytes (1-2×10^6 cells) or cartilage tissue (200-300 mg) were solubilized in solution D (4 M guanidine isothiocyanate, 20 mM sodium acetate/pH 5.2, 0.1 M 2-mercaptoethanol and 0.5% N-lauroylsarcosine). One volume of isopropanol was added to the mixture and all proteins and nucleic acids were precipitated at −20° C. overnight. […] The total RNA pellet was resuspended in diethyl pyrocarbonate-treated (DEPC) water and the amount of total RNA was measured by reading optical density at 260 nm. […]
(§2) One microliter of reverse transcribed total RNA was incubated with 2.5 U of AmpliTaq™ DNA polymerase (Perkin Elmer, Branchburg, N.J.) in 50 mM KCl, 1.5 mM MgCl2, 10 mM Tris-HCl, pH 8.3, 200 μM dNTP mix and 0.5 μmol each of oligonucleotide primers in 50 μl reaction mixture. […] The digital images of the gel were analyzed using NIH 1.60 imaging software to evaluate the pixel intensity of the band of the PCR products. […] The band intensities were determined to be below saturation. […]
(§3) MMP-13 expression was maximal by 12 days. Gene expression was determined by RT-PCR analyses of mRNA in the manner used to detect expression of MMPs and cytokines described elsewhere. […]

[3] = test system: adult human articular cartilage; assay: RT-PCR of hypertrophy and degradation genes in human articular cartilage explant culture
Description: as §1, §2, §3

[4] = induction within a 24-48 hr period

With ERGPPGPQGARGFPGTPGLPGVK [CB12-II] the “MMP-13 gene expression (mRNA by RT-PCR)” value [1] was “weakly upregulated”, the “time at which MMP-13 expression was maximal” value [2] was ≤ 12 days and the “expression of genes characteristic of chondrocyte hypertrophy (COLX, MMP-9, TGF-B1, IHH, MMP-13, CBFA1, SOX 9, bFGF, pTHrP, caspase-3, MT1-MMP, IL-1B, MMP-1)” value [2, 4] was “rapid induction”. The “time at which MMP-13 expression was maximal” value [3] was ≤ 12 days and the “expression of genes characteristic of chondrocyte hypertrophy (COLX, MMP-9, TGF-B1, IHH, MMP-13, CBFA1, SOX 9, bFGF, pTHrP, caspase-3, MT1-MMP, IL-1B, MMP-1)” value [3, 4] was “rapid induction”.
